Assay in all cases: Disc diffusion antimicrobial susceptibility testing
Format in all cases: cell-based, Staphylococcus pseudolugdunensis

The test system of one assay is isolate B006. As to the method: (§1) In vitro antimicrobial susceptibility testing for amoxicillin-clavulanate, cefazolin, clindamycin, erythromycin, gentamicin, levofloxacin, minocycline, penicillin, rifampin, trimethoprim/sulfamethoxazole (SXT) and vancomycin was determined by a disc diffusion method in accordance with Clinical and Laboratory Standards Institute guidelines (CLSI Performance standards for antimicrobial disk susceptibility tests; Approved standard, 9th ed. (2006) Clinical and Laboratory Standards Institute, Wayne, Pa.).

In a further assay the test system is isolate B060. On the procedure: as §1
In a further assay the test system is isolate B230. On the procedure: as §1
A further assay relates to isolate B277. The conditions noted are these: isolate 8277. On the procedure:
as §1

Another assay deals with isolate B287. The conditions noted are these: isolate 8287. As to the method: as §1
In a further assay the test system is isolate B292. The settings on record: isolate 13292. On the procedure:
as §1

For a further assay, the system named is isolate B333. On the procedure:
as §1

In another assay the test system is isolate B334. On the procedure: as §1
The next assay relates to isolate B354. As to the method: as §1
For another assay, the system named is isolate B715. The conditions noted are these: isolate 13715. On the procedure: as §1
The next assay concerns isolate B739. The conditions noted are these: isolate 8739. On the procedure:
as §1

The subject of the next assay is isolate B837. As to the method: as §1
Further: key: R—resistant; S—susceptible.

On to Trimethoprim/sulfamethoxazole, for which the Antimicrobial susceptibility entry in the assay with isolate B006 is recorded as “S”; in the assay on isolate B060, “R”; in the assay with isolate B230, “R”; with isolate B277, “S”; in the assay with isolate B287, “R”; with isolate B292, “S”. In addition, the Antimicrobial susceptibility entry is recorded as “S” in the assay on isolate B333; “R” in the assay with isolate B334; “S” with isolate B354; “R” with isolate B715; “S” with isolate B739; “S” in the assay on isolate B837.
Consider Penicillin, for which the Antimicrobial susceptibility result with isolate B006 was “R”; with isolate B060, “R”; in the assay with isolate B230, “R”; in the assay on isolate B277 it was “S”; in the assay with isolate B287 it was “R”; in the assay with isolate B292, “R”. Further, the Antimicrobial susceptibility entry in the assay with isolate B333 is on record as “R”; with isolate B334 it was “R”; in the assay on isolate B354, “S”; in the assay on isolate B715 it was “R”; with isolate B739 it was “R”; with isolate B837, “R”.
For the molecule `CC[C@H]1OC(=O)[C@H](C)[C@@H](O[C@H]2C[C@@](C)(OC)[C@@H](O)[C@H](C)O2)[C@H](C)[C@@H](O[C@@H]2O[C@H](C)C[C@H](N(C)C)[C@H]2O)[C@](C)(O)C[C@@H](C)C(=O)[C@H](C)[C@@H](O)[C@]1(C)O` [Erythromycin], the Antimicrobial susceptibility result in the assay with isolate B006 was “R”; with isolate B060 it was “S”; in the assay with isolate B230, “S”; in the assay on isolate B277 it was “S”; in the assay on isolate B287 it was “S”; in the assay with isolate B292, “S”. The Antimicrobial susceptibility result is “R” with isolate B333; “R” in the assay on isolate B334; “S” with isolate B354; “S” with isolate B715; “R” in the assay with isolate B739; “R” with isolate B837.
As for `CN(C)c1ccc(O)c2c1C[C@H]1C[C@H]3[C@H](N(C)C)C(O)=C(C(N)=O)C(=O)[C@@]3(O)C(O)=C1C2=O` [Minocycline], the Antimicrobial susceptibility result with isolate B006, in the assay on isolate B060, in the assay with isolate B230, in the assay with isolate B277, with isolate B287 and in the assay with isolate B292 was “S” each time. For the same molecule, the Antimicrobial susceptibility result in the assay with isolate B333, with isolate B334, in the assay with isolate B354, in the assay with isolate B715, in the assay on isolate B739 and in the assay on isolate B837 was “S” in each case.
`Cc1nnc(SCC2=C(C(=O)O)N3C(=O)[C@@H](NC(=O)Cn4cnnn4)[C@H]3SC2)s1` [Cefazolin]: the Antimicrobial susceptibility entry in the assay with isolate B006 is on record as “R”; in the assay on isolate B060, “S”; in the assay on isolate B230, “S”; in the assay with isolate B277, “S”; in the assay with isolate B287 it was “S”; with isolate B292, “S”. Moreover, the Antimicrobial susceptibility entry was “S” with isolate B333; “R” with isolate B334; “S” in the assay on isolate B354; “R” with isolate B715; “R” with isolate B739; “R” in the assay on isolate B837.

The values above are taken from patent US20100240093A1, “Isolated Staphylococcus Pseudolugdunensis” (priority 2006, published 2010).
